The target of the assay is T1, 15-PGDH (Homo sapiens, UniProt P15428).
T1 construct: purchased Sino Biological Inc. 11205-H08E
T1 sequence (P15428 1-266): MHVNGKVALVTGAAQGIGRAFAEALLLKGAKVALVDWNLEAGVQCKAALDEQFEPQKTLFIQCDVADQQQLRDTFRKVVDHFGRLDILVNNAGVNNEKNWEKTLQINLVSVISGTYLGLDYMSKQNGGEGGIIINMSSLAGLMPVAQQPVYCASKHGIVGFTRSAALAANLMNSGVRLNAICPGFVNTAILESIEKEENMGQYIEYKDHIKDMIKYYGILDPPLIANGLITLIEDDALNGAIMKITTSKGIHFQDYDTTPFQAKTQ
Put plainly: Detection of Activity of 15-PGDH Kinase (inhibition of 15-PGDH enzyme). The assay is classed as biochemical. The protocol:
• a. A solution of pH 7.5 containing 50 mM Tris-HCl and 0.01% Tween 20 was prepared with ultrapure water as a reaction buffer; • b. a 10 mM mother liquor of the compound to be tested was prepared with DMSO, and then the reaction buffer was used to dilute the mother liquor of the compound to be tested to obtain solution 1 of the compound to be tested at a concentration of 4000 nM, and then the solution 1 of the compound to be tested was serially diluted into solutions 2-10 of the compound to be tested at 9 concentrations with a gradient difference of three-fold. 5 μL of each concentration of solutions 1-10 of the compound to be tested was respectively taken and added into a 384-well plate as test wells; • c. 5 μL of the reaction buffer was added to the 384-well plate as positive control and blank control wells; • d. the reaction buffer was used to prepare a 15-PGDH protein solution at a concentration of 5 ng/μL, 5 μL of the 15-PGDH protein solution was taken and added to the test wells and positive control wells, and 5 μL of the reaction buffer was added to the blank control wells at the same time, then the plate was centrifuged at 2000 rpm for 30 seconds; • e. the reaction buffer was used to prepare 5 mM β-NAD and 2 mM PGF2α, respectively, which were mixed at 1:1 by volume to obtain a substrate mixture, 10 μL of the substrate mixture was taken and added to the test wells, positive control wells and blank control wells to start the reaction; • f. the fluorescence signal value (Ex/Em=340/450) of each well was detected continuously by using a multifunctional microplate reader.
• a) Continuous fluorescence signal values were analyzed by using the “kinetic calculations-slope calculation method” in the PHERAstar Data analysis software to obtain the slope of each test well; • b) the inhibition rate % was calculated by using the following formula:
inhibition rate %=[1−(slope of test well-signal value of positive control well)/(signal value of blank control well-average signal value of positive control well)]×100%. • c) calculation of IC50 and plotting of inhibition rate-dose curves: IC50 values were calculated by fitting compound concentrations and corresponding inhibition rates with a nonlinear regression (dose response-variable slope) via using GraphPad Prism 6.0.
The formula is shown below: Y=Bottom+(Top−Bottom)/(1+10^((Log IC50−X)*HillSlope)), wherein X is a log value of a concentration of the compound, and Y is inhibition rate %.

[1] abbreviates: class symbols, substrates β-NAD and PGF2α, pH 7.5, fluorescence Ex/Em=340/450, read-out: IC50.

From patent publication US20260347365A1, “COMPOUND FOR REGULATING AND CONTROLLING 15-PGDH ACTIVITY AND PREPARATION METHOD THEREFOR” (SCINNOHUB PHARMACEUTICAL CO.,LTD, priority 2023, published 2026) come the findings set out here.

Like-named read-outs stand apart in the source and are kept apart here. Bounds are passed on as bounds.

Consider `O=C(c1ccc2c(c1)nc(-c1ccc3ncsc3c1)c1nccn12)N1CCCCC1` [Example 10], for which the IC50 under setting [1] was 5 to 10 nM.

On to `O=C(c1ccc2c(c1)nc(-c1ccc3ocnc3c1)c1nccn12)N1CCCCC1` [Example 2, (4-(benzo[d]oxazol-5-yl)imidazo[1,2-a]quinoxalin-7-yl)(piperidin-1-yl)methanone], for which the IC50 is 2 to 5 nM.

On to `Cc1cn2c(n1)c(-c1ccc3c(c1)CN(C)C3=O)nc1cc(C(=O)N3CCCCC3)ccc12` [Example 34], for which the IC50 under setting [1] was under 2 nM.

`O=C1OCc2cc(-c3nc4cc(C(=O)N5CCCCC5)ccc4n4ccnc34)ccc21` [Example 31]: the IC50 under setting [1] lay within 5 to 10 nM.

In the case of `O=C(c1ccc2c(c1)nc(-c1ccc3nccnc3c1)c1nccn12)N1CCCCC1` [Example 19], under setting [1], the IC50 fell in the range of 5 to 10 nM.

`CCOC(=O)c1ccc(-c2nc3cc(C(=O)N4CCCCC4)ccc3n3ccnc23)cc1` [Example 42]: under setting [1], the IC50 was in the range of 5 to 10 nM.

As to `CC(C)CC1CN2C(=N1)C(c1ccc3c(c1)CN(C)C3=O)=Nc1cc(C(=O)N3CCCCC3)ccc12` (centres unmarked) [Example 44], the IC50 under setting [1] is 5 to 10 nM.

In the case of `O=C(c1ccc2c(c1)nc(-c1cccnc1)n1ccnc21)N1CCCCC1` [Example 57], under setting [1], the IC50 was in the range of 2 to 5 nM.

As for `Cn1ccc(-c2nc3cc(C(=O)N4CCCCC4)ccc3c3nccn23)cc1=O` [Example 61], the IC50 under setting [1] fell in the range of 5 to 10 nM.

`O=C(c1ccc2c(c1)nc(-c1ccc3nccnc3c1)n1ccnc21)N1CCCCC1` [Example 67]: the IC50 under setting [1] is 2 to 5 nM.

As for `Cc1nc2c3ccc(C(=O)N4CCCCC4)cc3nc(-c3ccc4c(c3)CN(C)C4=O)n2n1` [Example 77], the IC50 under setting [1] was under 2 nM.

For `CN1Cc2cc(-c3nc4cc(C(=O)N5CCCCC5)ccc4n4ccnc34)ccc2C1=O` [Example 6], under setting [1], the IC50 is under 2 nM.

With `O=C(c1ccc2c(c1)nc(-c1ccc3c(c1)OCCO3)n1ccnc21)N1CCCCC1` [Example 60], the IC50 under setting [1] was in the range of 5 to 10 nM.

With `O=C(c1ccc2c(c1)nc(-c1cncnc1)c1nccn12)N1CCCCC1` [Example 8], the IC50 under setting [1] was 5 to 10 nM.

`CN1Cc2cc(C3=Nc4cc(C(=O)N5CCCCC5)ccc4N4CC(C(C)(C)C)N=C34)ccc2C1=O` (centres unmarked) [Example 45]: the IC50 under setting [1] was 5 to 10 nM.

For `O=C(c1ccc2c(c1)nc(-c1ccc3c(c1)CCN3)n1ccnc21)N1CCCCC1` [Example 47], under setting [1], the IC50 lay within 2 to 5 nM.

Turning to `CN1Cc2cc(-c3nc4cc(C(=O)N5CCC(F)CC5)ccc4n4ccnc34)ccc2C1=O` [Example 38], the IC50 under setting [1] fell in the range of 2 to 5 nM.

Consider `Cn1ncc2cc(-c3nc4cc(C(=O)N5CCCCC5)ccc4c4nccn34)ccc21` [Example 69], for which the IC50 under setting [1] was in the range of 2 to 5 nM.

On to `CC(C)C1CN2C(=N1)C(c1ccc3c(c1)CN(C)C3=O)=Nc1cc(C(=O)N3CCCCC3)ccc12` (centres unmarked) [Example 43], for which, under setting [1], the IC50 is 5 to 10 nM.

Consider `CN1Cc2cc(C3=Nc4cc(C(=O)N5CCCCC5)ccc4N4CCN=C34)ccc2C1=O` [Example 35], for which, under setting [1], the IC50 is under 2 nM.

In the case of `CN1Cc2cc(-c3nc4cc(C(=O)N5CCCCC5)ccc4c4ncnn34)ccc2C1=O` [Example 76], under setting [1], the IC50 is under 2 nM.

In the case of `CN1Cc2cc(C3=Nc4cc(C(=O)N5CCCCC5)ccc4N4CC5(CC5)N=C34)ccc2C1=O` [Example 4, 2-methyl-5-(7′-(piperidine-1-carbonyl)-1′H-spiro[cyclopropane-1,2′-imidazo[1,2-a]quinoxaline]-4′-yl) isoindolin-1-one], the IC50 was under 2 nM.

In the case of `O=C(c1ccc2c(c1)nc(-c1ccccc1)c1nccn12)N1CCC(F)(F)CC1` [Example 16], the IC50 under setting [1] was in the range of 100 to 1000 nM.

As to `CN1Cc2cc(C3=Nc4cc(C(=O)N5CCCCC5)ccc4C4=NCCN34)ccc2C1=O` [Example 82], under setting [1], the IC50 was 5 to 10 nM.

In the case of `CC1CN2C(=N1)C(c1ccc3c(c1)CN(C)C3=O)=Nc1cc(C(=O)N3CCCCC3)ccc12` (centres unmarked) [Example 36], under setting [1], the IC50 is under 2 nM.

As for `CC1CN=C2C(c3ccc4c(c3)CN(C)C4=O)=Nc3cc(C(=O)N4CCCCC4)ccc3N21` (centres unmarked) [Example 37], the concentration for half-maximal inhibition (IC50) under setting [1] was under 2 nM.

Take `O=C(c1ccc2c(c1)nc(-c1ccccc1)c1nccn12)N1CCOCC1` [Example 17]: the IC50 under setting [1] lay in the range of 100 to 1000 nM.

For `CN1Cc2cc(-c3nc4cc(C(=O)N5CCCCC5)ccc4c4cccn34)ccc2C1=O` [Example 80], under setting [1], the IC50 was under 2 nM.

In the case of `Cn1ccc2cc(-c3nc4cc(C(=O)N5CCCCC5)ccc4c4nccn34)ccc2c1=O` [Example 73], the IC50 under setting [1] was under 2 nM.

A word on the IC50: it is the concentration at which inhibition is half-maximal.
